Test results from patent US20230406849A1, “KRAS INHIBITORS FOR TREATMENT OF CANCERS” (TYLIGAND BIOSCIENCE (SHANGHAI) LIMITED, priority 2020, published 2023).
Read-outs that look alike come from different tables or passages of the source.

Experiments:
[1] = system: human non-small cell lung cancer NCI-H358 xenograft; test: Antitumor activity in NCI-H358 xenograft mouse model; format: in vivo, NPSG mice; conditions: NPSG mice, gavage once daily 10 mg/kg, day 14
Experimental: Tumor growth inhibitory activity of the compounds of the present disclosure was evaluated and verified in a human non-small cell lung cancer NCI-H358 xenograft mouse model.
[Test materials]: NCI-H358 cell line carrying KRAS G12C mutation, provided by KYinno Biotechnology Co., Ltd. (from ATCC, Cat #CRL-5807). NPSG mice, female, provided by Beijing Phenotek Biotechnologies Inc.
[Experimental procedure]: 5×10^6 NCI-H358 cells (containing 50% Matrigel) were inoculated subcutaneously on the right flank of 6-8 weeks old female NPSG mice, with the inoculation volume of 0.1 mL. When the average tumor size reached 160-220 mm^3, the mice were grouped randomly according to tumor size and body weight, upon which the mice were treated with compounds on the same day designated as Day 0. The mice were gavage administrated once daily at 10 mg/kg or solvent control (50 mM citrate buffer containing 10% cyclodextrin, pH5.0). Tumor volume and body weight were measured twice a week during the study. The tumor volume was calculated by the formula V=D×d×d/2, wherein D and d refer to the long and short diameter of the tumor respectively.
In addition, using the same materials and procedures as above, the tumor inhibition activity of Example 9 at different doses in the above-mentioned non-small cell lung cancer mouse model and its effect on body weight were also investigated.

[2] = Cassette pharmacokinetic experiment in rats (IV); format: in vivo; conditions: rat, plasma, 1 mg/kg, male SD rats, tail vein IV, 1 mg/mL each compound at 1 mL/kg
Excerpt: 2.1 Pharmacokinetic Properties of Some Compounds of the Present Disclosure Evaluated by Cassette Pharmacokinetic Experiments in Rats.
[Test materials]: Male SD rats, age: 6-8 weeks, body weight 220-250 g, purchased from Zhaoyan (Suzhou) New Drug Research Center Co., Ltd.; Tolbutamide (Aladdin, Cat #H1401054); Sulfobutyl-(Captisol, Shandong Binzhou Zhiyuan Biological Technology Co., Ltd, Cat #20191013); Propylene glycol (15)-stearate (Solutol, Meilun Bio, Cat #50206A); DMSO (Vetec Company, Cat #WXBD0293V); acetonitrile (Sigma-Aldrich, Cat #WXBD1744V); Methanol (Sigma-Aldrich, Cat #WXBD2831V).
[Experimental procedure]: The compound combination was prepared in a solvent of 5% DMSO/10% Solutol/85% (20% Captisol), and the final concentration of each compound was 1 mg/mL. The SD rats were treated with the compound preparation in 1 mL/kg by tail vein IV injection, and blood samples were collected at the time points of 5 min, 15 min, 30 min, 1 h, 2 h, 4 h, 8 h, and 24 h via external jugular vein puncture, centrifuged at low temperature for 20 minutes to collect plasma samples, which were stored at −80° C. until analysis.
[Sample analysis]: Establishing LC-MS/MS compound analysis method
Standard curve preparation: 20 μL of lmg/mL DMSO stock solution for each compound was aspirated and transferred to […] of 50% methanol working solution, and the resulting solution was serially diluted to obtain a standard curve working solution with concentrations of 20000, 10000, 5000, 1000, 500, 100, 50, 20 and […]. Then 5 µL of this standard curve working solution was mixed with 45 μL rat blank plasma to give a standard curve with concentrations of 2000, 1000, 500, 100, 50, 10, 2 and 1 ng/mL for quantification of unknown samples.
Sample pretreatment: 50 μL of unknown plasma sample or standard curve sample was mixed with 250 μL of acetonitrile containing internal standard as a precipitant. The plasma protein was precipitated, extracted for test compounds, and centrifuged at low temperature for 20 minutes. The supernatant was taken, mixed with 0.1% formic acid aqueous solution, and 5 μL of the resulting solution was aspirated for blood concentration analysis.
[Data processing]: A standard curve was plotted using mass spectrometry software, to quantify unknown samples, and pharmacokinetic parameters are calculated by Winnonlin 8.2 using the drug concentration of unknown samples at each time point.

[3] = system: human non-small cell lung cancer cells NCI-H358 with KRas G12C mutation; test: NCI-H358 cell proliferation, CellTiter-Glo Luminescent Cell Viability Assay; format: cell-based; conditions: for inhibition at 1 µM: 1 μM compound, read-out: Inhibition rate % (1 μM)
Excerpt: This assay verified the inhibitory activity of the compounds of the present disclosure on the proliferation of human non-small cell lung cancer cells NCI-H358 with KRas G12C mutation by using Promega's CellTiter-Glo® Luminescent Cell Viability Assay kit.
[Test materials]: NCI-H358 cell line (Cell Resource Center, IBMS, CAMS/PUMC, Item number: 3111C0001CCC000470), 96-well transparent flat-bottomed black-walled cell culture plate (Greiner Bio one, Cat #655096), RPMI-1640 Medium (GE, Cat #SH30809.01), Fetal Bovine Serum FBS (Thermo Fisher, Cat #10099-141), CellTiter-Glo® Luminescent Cell Viability Assay Kit (Promega, Cat #G7573), PBS (Solarbio, Cat #P1020), Trypsin (Thermo Fisher, Cat #25200072), DMSO (Sigma, Cat #D2650), Methyl cellulose (SIGMA, Cat #9004-67-5).
[Experimental procedure]: 180 μL of cell suspension (RPMI1640 solution with 10% FBS and 1% methyl cellulose) was charged to a 96-well cell culture plate at a density of 1500 cells/well. A control group containing no cells, no compounds and only 3D complete medium (RPMI 1640 solution with 1! Methyl cellulose and 10% FBS) (i.e. culture medium control) and a control group containing no compounds but cells (i.e. cell control) were set. AMG510 or the following reference compounds were used as positive controls. The cell plate was placed in a cell incubator overnight. A 10-fold drug solution (RPMI1640 solution with 10% FBS and 1% DMSO) was prepared at a concentration of 10 μM, and 20 μL of this solution was added to each well of the 96-well plate seeded with cells, so that the final concentration of the compounds in each well was 1 μM, and the DMSO concentration […] replicate wells were set up for each compound. The solutions of AMG510 or the following reference compounds were prepared in the same way and added to the positive control wells. The cell plate was placed in a cell incubator and cultured for 120 h. For endpoint detection, the CellTiter-Glo reagent was melted, and the cell plate was moved to room temperature to equilibrate for 30 minutes, added with 100 µL of CellTiter-Glo to each well, and shaken on an orbital shaker for 5 minutes to fully lyse the cells. The plate was kept at room temperature for 20 minutes to stabilize the luminescence signal, and the luminescence value of each well was full wavelength scanned with a multi-functional microplate reader (Molecular Devices, Spectramax M3 microplate reader).
[Test samples] The compounds of Examples 1-39, and reference compound A
[Data Analysis] The following formula was used to calculate the cell inhibition rate under the action of each concentration of the compounds:
Inhibition rate %=[1−(LumDrug to be tested−LumCulture medium control)/(LumCell control−LUMCulture medium control)]×100%
IC50 values were calculated using GraphPad Prism 7.0 software, nonlinear Sigmoidal regression was used to fit the data to obtain a dose-response curve.

Structure (SMILES) | TGI(%) [1] | Tumor volume (mm^3) (day 14) [1] | AUC(0-t) [2] | clearance [2] | half-life [2] | inhibition at 1 µM ([3]; 120 h) | IC50 ([3]; 120 h, read-out: IC50) | IC50 ([3]; read-out: IC50 value)
C=CC(=O)N1CCN(c2c(C#N)c(O[C@@H]3CN(C)C[C@H]3OC)nc3c(F)c(-c4ccc(F)c5sc(N)nc45)c(Cl)cc23)C[C@H]1C [Example 1, 4-((R)-4-acryloyl-3-methylpiperazin-1-yl)-7-(2-amino-7-fluorobenzo[d]thiazol-4-yl)-6-chloro-8-fluoro-2-(((3R,4R)-4-methoxy-1-methylpyrrolidin-3-yl)oxy)quinoline-3-carbonitrile] | 71% | 478.4 mm^3 | 657 ng·h/mL | 20.9 mL/min/kg | 2.87 h | 94.7% | 15 nM | < 20 nM
C=CC(=O)N1CCN(c2c(C#N)c(O[C@@H]3CN(C)C[C@H]3OC)nc3c(F)c(-c4ccc(F)c5sc(N)nc45)c(Cl)cc23)CC1 [Example 2, 4-(4-Acryloylpiperazin-1-yl)-7-(2-amino-7-fluorobenzo[d]thiazol-4-yl)-6-chloro-8-fluoro-2-(((3R,4R)-4-methoxy-1-methylpyrrolidin-3-yl)oxy)quinoline-3-carbonitrile] | 69% | 497.3 mm^3 |  |  |  | 97.6% | 3 nM | < 20 nM
C=CC(=O)N1CCN(c2c(C#N)c(-c3cccc4c3CCN(C)C4)nc3c(F)c(-c4ccc(F)c5sc(N)nc45)c(Cl)cc23)CC1 [Example 10, 4-(4-Acryloylpiperazin-1-yl)-7-(2-amino-7-fluorobenzo[d]thiazol-4-yl)-6-chloro-8-fluoro-2-(2-methyl-1,2,3,4-tetrahydroisoquinolin-5-yl)quinoline-3-carbonitrile] |  |  | 592 ng·h/mL | 27.4 mL/min/kg | 2.66 h | 96.1% | 18 nM | < 20 nM
